We go through 21 compounds from patent US12110276B2 (Genentech, Inc., priority 2021, dated 2024).

The structures appear in SMILES notation.

For experiment [1], the target named is TEAD1 (Homo sapiens (Human), UniProt P28347). In words: TR-FRET lipid pocket probe competition assay (Lipid HTRF), TEAD1.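 Also: His-tagged TEAD1 with biotinylated probe, detected via Europium anti-His and XL665 streptavidin, probe displacement lowers TR-FRET signal, IC50 from four-parameter nonlinear fit.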 It counts as binding. The settings on record: 4 hours pre-incubation; read-out: Lipid HTRF TEAD1 IC50. In general terms: TR-FRET usually uses a lanthanide donor and a delayed reading to cut background.
Sequence of TEAD1 (P28347 whole entry, species assumed): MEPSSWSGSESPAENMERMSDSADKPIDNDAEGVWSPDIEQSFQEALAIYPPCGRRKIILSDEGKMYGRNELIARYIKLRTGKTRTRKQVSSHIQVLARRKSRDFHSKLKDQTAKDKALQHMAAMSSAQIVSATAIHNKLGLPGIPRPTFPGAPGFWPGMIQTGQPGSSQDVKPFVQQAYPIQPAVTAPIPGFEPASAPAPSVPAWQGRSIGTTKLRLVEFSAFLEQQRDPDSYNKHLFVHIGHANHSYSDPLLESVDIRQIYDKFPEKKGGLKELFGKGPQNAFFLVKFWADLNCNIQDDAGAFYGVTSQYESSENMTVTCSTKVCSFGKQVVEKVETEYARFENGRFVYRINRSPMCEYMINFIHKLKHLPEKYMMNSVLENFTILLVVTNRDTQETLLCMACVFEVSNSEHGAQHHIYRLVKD
Experiment [2] has as its target TEAD3 (Homo sapiens (Human), UniProt Q99594). Kind of experiment: TR-FRET lipid pocket probe competition assay (Lipid HTRF), TEAD3. The format is binding. As to conditions: 4 hours pre-incubation; read-out: Lipid HTRF TEAD3 IC50.
Experiment [3] has as its target TEAD4 (Homo sapiens (Human), UniProt Q15561). In words: TR-FRET lipid pocket probe competition assay (Lipid HTRF), TEAD4.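 Also: His-tagged TEAD4 with biotinylated lipid-pocket probe, read by Europium anti-His and XL665 streptavidin, where probe displacement lowers the TR-FRET signal, IC50 from a four-parameter fit.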 It counts as binding. As to conditions: 4 hours pre-incubation; read-out: Lipid HTRF TEAD4 IC50.
Experiment [4] addresses TEAD2 (Homo sapiens (Human), UniProt Q15562).
Method: His-tagged TEAD proteins are pre-incubated with TEAD project compounds for 30 minutes or 4 hours at room temperature. Biotinylated lipid pocket probes are then added to the TEAD/Compound mixture and incubated for 60 minutes at room temperature. The lipid pocket probe competes with the test compound for the TEAD lipid pocket until equilibrium is reached. After 60 minutes, Europium labelled anti-His (Perkin Elmer #AD0110) and XL665 labelled streptavidin (CIS Bio 610SAXAC) are added to the TEAD/test compound/lipid pocket mixture and incubated for 30 minutes or 4 hours. TR-FRET values are then measured using an EnVision multi-label plate reader (Perkin Elmer Cat #2104-0010A.) If the lipid pocket probe binds to TEAD as expected, a TR-FRET signal results from the proximity of anti-His Eu and XL665. If a TEAD lipid pocket binder such as binds and displaces the lipid pocket probe, the disruption of the TEAD:probe interaction results in a decrease in TR-FRET signal. The potency of compounds as TEAD lipid pocket binders is determined by IC50 value generated using a non-linear 4 parameter curve fit.

Sequence of TEAD4 (Q15561 whole entry, species assumed): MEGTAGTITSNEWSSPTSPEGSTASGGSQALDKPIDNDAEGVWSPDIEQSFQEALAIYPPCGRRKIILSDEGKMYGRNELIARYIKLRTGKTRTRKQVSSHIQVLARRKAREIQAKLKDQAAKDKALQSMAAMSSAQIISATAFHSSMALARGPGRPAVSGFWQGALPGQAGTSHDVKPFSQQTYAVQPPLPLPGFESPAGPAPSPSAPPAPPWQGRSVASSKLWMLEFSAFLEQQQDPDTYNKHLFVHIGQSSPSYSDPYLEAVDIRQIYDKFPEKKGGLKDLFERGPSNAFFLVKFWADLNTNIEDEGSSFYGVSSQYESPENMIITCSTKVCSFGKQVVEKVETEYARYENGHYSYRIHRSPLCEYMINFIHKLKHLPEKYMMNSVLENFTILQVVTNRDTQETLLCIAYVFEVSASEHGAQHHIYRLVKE
Sequence of TEAD2 (Q15562 whole entry, species assumed): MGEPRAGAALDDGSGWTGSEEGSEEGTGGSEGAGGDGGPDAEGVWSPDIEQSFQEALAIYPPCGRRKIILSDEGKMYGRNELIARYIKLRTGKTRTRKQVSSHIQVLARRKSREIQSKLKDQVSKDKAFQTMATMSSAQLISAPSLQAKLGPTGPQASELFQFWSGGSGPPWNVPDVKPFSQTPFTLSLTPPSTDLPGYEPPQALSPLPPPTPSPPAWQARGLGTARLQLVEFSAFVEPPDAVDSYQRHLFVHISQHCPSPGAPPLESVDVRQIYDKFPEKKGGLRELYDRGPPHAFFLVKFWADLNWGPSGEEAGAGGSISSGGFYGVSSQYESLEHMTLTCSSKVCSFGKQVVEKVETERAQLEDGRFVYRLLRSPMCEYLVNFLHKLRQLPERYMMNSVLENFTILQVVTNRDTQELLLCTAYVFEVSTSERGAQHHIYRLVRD
Sequence of TEAD3 (Q99594 whole entry, species assumed): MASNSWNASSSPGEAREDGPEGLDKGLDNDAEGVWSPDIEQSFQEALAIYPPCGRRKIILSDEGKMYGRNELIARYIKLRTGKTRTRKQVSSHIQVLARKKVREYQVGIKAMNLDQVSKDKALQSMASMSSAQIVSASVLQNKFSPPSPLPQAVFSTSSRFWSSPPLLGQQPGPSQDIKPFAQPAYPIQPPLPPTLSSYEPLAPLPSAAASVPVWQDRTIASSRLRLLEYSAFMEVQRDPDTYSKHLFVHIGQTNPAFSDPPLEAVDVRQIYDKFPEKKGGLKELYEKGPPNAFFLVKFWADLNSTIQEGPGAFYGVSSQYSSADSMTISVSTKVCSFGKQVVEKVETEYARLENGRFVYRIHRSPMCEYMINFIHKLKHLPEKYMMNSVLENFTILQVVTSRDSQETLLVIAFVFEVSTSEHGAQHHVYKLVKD

For orientation: IC50 means the concentration that gives 50% inhibition. Turning to `C=C(Cl)C(=O)N1CC(c2nn(-c3ccc(OC(F)(F)F)cc3)c3nccc([C@@H](O)CO)c23)C1` [Compound 110, (R)-2-chloro-1-(3-(4-(1,2-dihydroxyethyl)-1-(4-(trifluoromethoxy)phenyl)-1H-pyrazolo[3,4-b]pyridin-3-yl)azetidin-1-yl)prop-2-en-1-one], the IC50 was 19 nM in experiment [1], 17 nM in experiment [2], 4.3 nM in experiment [3] and 8 nM in experiment [4].

For the compound `C=CC(=O)N1CC(c2nn(-c3ccc(OC(F)(F)F)cc3)c3nccc([C@H](O)CO)c23)C1` [Compound 113, (S)-1-(3-(4-(1,2-Dihydroxyethyl)-1-(4-(trifluoromethoxy)phenyl)-1H-pyrazolo[3,4-b]pyridin-3-yl)azetidin-1-yl)prop-2-en-1-one], the IC50 was found to be 19 nM in experiment [1], 20 nM in experiment [2], 4.5 nM in experiment [3] and 6.5 nM in experiment [4].

As to `C=CC(=O)N1CC(c2nn(-c3ccc(OC(F)(F)F)cc3)c3nccc([C@@H](O)CO)c23)C1` [Compound 114, (R)-1-(3-(4-(1,2-Dihydroxyethyl)-1-(4-(trifluoromethoxy)phenyl)-1H-pyrazolo[3,4-b]pyridin-3-yl)azetidin-1-yl)prop-2-en-1-one], the IC50 was 14 nM in experiment [1], 16 nM in experiment [2], 2.9 nM in experiment [3] and 4.6 nM in experiment [4].

For the compound `C=CC(=O)NCc1nn(-c2ccc(OC(F)(F)F)cc2)c2nccc(N3CC(NC(C)=O)C3)c12` [Compound 116, N-((4-(3-acetamidoazetidin-1-yl)-1-(4-(trifluoromethoxy)phenyl)-1H-pyrazolo[3,4-b]pyridin-3-yl)methyl)acrylamide], the IC50 in experiment [1] was 27 nM; in experiment [2], 14000 nM; in experiment [3], 11 nM; in experiment [4] it was 75 nM.

As for `C=CC(=O)NCc1nn(-c2ccc(OC(F)(F)F)cc2)c2nccc(N3CC(OC)C3)c12` [Compound 118, N-((4-(3-methoxyazetidin-1-yl)-1-(4-(trifluoromethoxy)phenyl)-1H-pyrazolo[3,4-b]pyridin-3-yl)methyl)acrylamide], the IC50 in experiment [1] was 16 nM; in experiment [2] it was 50000 nM; in experiment [3] it was 4.3 nM; in experiment [4], 97 nM.

On to `C=CC(=O)NCc1nn(-c2ccc(OC(F)(F)F)cc2)c2nccc(-c3c[nH]cn3)c12` [Compound 119, N-((4-(1H-Imidazol-4-yl)-1-(4-(trifluoromethoxy)phenyl)-1H-pyrazolo[3,4-b]pyridin-3-yl)methyl)acrylamide], for which the IC50 in experiment [1] was 160 nM; in experiment [2] it was 550 nM; in experiment [3], 110 nM; in experiment [4], 250 nM.

As for `C/C=C/C(=O)N1CC(c2nn(-c3ccc(OC(F)(F)F)cc3)c3nccc(CO)c23)C1` [Compound 120, (E)-1-(3-(4-(Hydroxymethyl)-1-(4-(trifluoromethoxy)phenyl)-1H-pyrazolo[3,4-b]pyridin-3-yl)azetidin-1-yl)but-2-en-1-one], the IC50 turned out to be 27 nM in experiment [1], 270 nM in experiment [2], 55 nM in experiment [3] and 160 nM in experiment [4].

For `C=CC(=O)NCc1nn(-c2ccc(OC(F)(F)F)cc2)c2nccc(N3CC(NC)C3)c12` [Compound 122, N-((4-(3-(methylamino)azetidin-1-yl)-1-(4-(trifluoromethoxy)phenyl)-1H-pyrazolo[3,4-b]pyridin-3-yl)methyl)acrylamide], the IC50 in experiment [1] worked out at 190 nM; in experiment [2], 21000 nM; in experiment [3] it was 39 nM; in experiment [4], 2000 nM.

With `C=CC(=O)NCc1nn(-c2ccc(OC(F)(F)F)cc2)c2nccc(N3CC(O)(CO)C3)c12` [Compound 124, N-((4-(3-hydroxy-3-(hydroxymethyl)azetidin-1-yl)-1-(4-(trifluoromethoxy)phenyl)-1H-pyrazolo[3,4-b]pyridin-3-yl)methyl)acrylamide], the IC50 was 41 nM in experiment [1], 930 nM in experiment [2], 9.9 nM in experiment [3] and 200 nM in experiment [4].

On to `C=C(F)C(=O)N1CC(c2nn(-c3ccc(OC(F)(F)F)cc3)c3nccc(N4CC[C@@H](O)C4=O)c23)C1` [Compound 125, (R)-1-(3-(1-(2-fluoroacryloyl)azetidin-3-yl)-1-(4-(trifluoromethoxy)phenyl)-1H-pyrazolo[3,4-b]pyridin-4-yl)-3-hydroxypyrrolidin-2-one], for which the IC50 in experiment [1] was found to be 800 nM; in experiment [2] it was 1700 nM; in experiment [3] it was 44 nM; in experiment [4] it was 870 nM.

With `C=CC(=O)NCc1nn(-c2ccc(OC(F)(F)F)cc2)c2nccc(OCCO)c12` [Compound 126, N-((4-(2-Hydroxyethoxy)-1-(4-(trifluoromethoxy)phenyl)-1H-pyrazolo[3,4-b]pyridin-3-yl)methyl)acrylamide], the IC50 in experiment [1] came out at 22 nM; in experiment [2], 50000 nM; in experiment [3], 4.4 nM; in experiment [4], 120 nM.

Regarding `O=C(/C=C/CO)N1CC(c2nn(-c3ccc(OC(F)(F)F)cc3)c3nccc(Cl)c23)C1` [Compound 127, (E)-1-(3-(4-Chloro-1-(4-(trifluoromethoxy)phenyl)-1H-pyrazolo[3,4-b]pyridin-3-yl)azetidin-1-yl)-4-hydroxybut-2-en-1-one], the IC50 amounted to 7.9 nM in experiment [1], 13 nM in experiment [2], 3.3 nM in experiment [3] and 17 nM in experiment [4].

With `O=C(C#CCO)NCc1nn(-c2ccc(OC(F)(F)F)cc2)c2nccc(CO)c12` [Compound 128, 4-Hydroxy-N-((4-(hydroxymethyl)-1-(4-(trifluoromethoxy)phenyl)-1H-pyrazolo[3,4-b]pyridin-3-yl)methyl)but-2-ynamide], the IC50 in experiment [1] was 6.5 nM; in experiment [2] it was 72 nM; in experiment [3] it was 3.6 nM; in experiment [4] it was 12 nM.

With `CC#CC(=O)N1CC(c2nn(-c3ccc(OC(F)(F)F)cc3)c3nccc([C@H](O)CO)c23)C1` [Compound 129, (S)-1-(3-(4-(1,2-Dihydroxyethyl)-1-(4-(trifluoromethoxy)phenyl)-1H-pyrazolo[3,4-b]pyridin-3-yl)azetidin-1-yl)but-2-yn-1-one], the IC50 was 110 nM in experiment [1], 200 nM in experiment [2], 43 nM in experiment [3] and 20 nM in experiment [4].

On to `C=C(F)C(=O)N1CC(c2nn(-c3ccc(OC(F)(F)F)cc3)c3nccc(-c4c[nH]cn4)c23)C1` [Compound 130, 1-(3-(4-(1H-Imidazol-4-yl)-1-(4-(trifluoromethoxy)phenyl)-1H-pyrazolo[3,4-b]pyridin-3-yl)azetidin-1-yl)-2-fluoroprop-2-en-1-one], for which the IC50 stood at 380 nM in experiment [1], 5400 nM in experiment [2], 540 nM in experiment [3] and 1000 nM in experiment [4].

On to `C=CC(=O)NCc1nn(-c2ccc(OC(F)(F)F)cc2)c2nccc(-c3cn[nH]c3)c12` [Compound 134, N-((4-(1H-Pyrazol-4-yl)-1-(4-(trifluoromethoxy)phenyl)-1H-pyrazolo[3,4-b]pyridin-3-yl)methyl)acrylamide], for which the IC50 in experiment [1] was 14 nM; in experiment [2], 360 nM; in experiment [3], 22 nM; in experiment [4], 43 nM.

As to `C=CC(=O)NCc1nn(-c2ccc(OC(F)(F)F)cc2)c2nccc(C(C)(C)O)c12` [Compound 135, N-((4-(2-Hydroxypropan-2-yl)-1-(4-(trifluoromethoxy)phenyl)-1H-pyrazolo[3,4-b]pyridin-3-yl)methyl)acrylamide], the IC50 was 390 nM in experiment [1], 34000 nM in experiment [2], 99 nM in experiment [3] and 68 nM in experiment [4].

Regarding `O=C(/C=C/CF)N1CC(c2nn(-c3ccc(OC(F)(F)F)cc3)c3ccnc(N4CC(O)C4)c23)C1` [Compound 137, (E)-4-fluoro-1-(3-(4-(3-hydroxyazetidin-1-yl)-1-(4-(trifluoromethoxy)phenyl)-1H-pyrazolo[4,3-c]pyridin-3-yl)azetidin-1-yl)but-2-en-1-one], the IC50 in experiment [1] is 72 nM; in experiment [2], 5200 nM; in experiment [3] it was 26 nM; in experiment [4], 360 nM.

Take `C=CC(=O)N(C)Cc1nn(-c2ccc(OC(F)(F)F)cc2)c2nccc([C@H](O)CO)c12` [Compound 139, (S)-N-((4-(1,2-Dihydroxyethyl)-1-(4-(trifluoromethoxy)phenyl)-1H-pyrazolo[3,4-b]pyridin-3-yl)methyl)-N-methylacrylamide]: the IC50 was found to be 31 nM in experiment [1], 600 nM in experiment [2], 12 nM in experiment [3] and 26 nM in experiment [4].

As to `C=CC(=O)NCc1nn(-c2ccc(OC(F)F)cc2)c2nccc(CO)c12` [Compound 140, N-((1-(4-(difluoromethoxy)phenyl)-4-(hydroxymethyl)-1H-pyrazolo[3,4-b]pyridin-3-yl)methyl)acrylamide], the IC50 turned out to be 230 nM in experiment [1], 4400 nM in experiment [2], 440 nM in experiment [3] and 720 nM in experiment [4].

Regarding `C=C(F)C(=O)N1CC(c2nn(-c3ccc(OC(F)(F)F)cc3)c3nccc(N4CC([C@H](O)CO)C4)c23)C1` [Compound 141, (S)-1-(3-(4-(3-(1,2-dihydroxyethyl)azetidin-1-yl)-1-(4-(trifluoromethoxy)phenyl)-1H-pyrazolo[3,4-b]pyridin-3-yl)azetidin-1-yl)-2-fluoroprop-2-en-1-one], the IC50 in experiment [1] was 27 nM; in experiment [2] it was 2000 nM; in experiment [3] it was 6.9 nM; in experiment [4], 54 nM.
